Assay [1] concerns the target GST-MCL-1 (Homo sapiens (Human), UniProt Q07820). Nature of the assay: TR-FRET MCL-1 binding assay (competition with probe F-Bak). In a few lines: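 Tested both in plain buffer and with 10% human serum. Top concentration 25 μM, 11 three-fold steps, 2 h room-temperature incubation of GST-MCL-1 with Tb-labelled anti-His antibody and F-Bak probe. Time-resolved FRET: 340 nm excitation, 520/525 and 495/510 nm emission.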
Background: Time-resolved FRET reads energy transfer from a long-lived donor to a nearby acceptor.

The subject of assay [2] is AMO-1 human multiple myeloma tumor cell line. Nature of the assay: AMO-1 cell viability assay (CellTiter-Glo). To be noted: AMO1, read-out: AMO-1 Viability IC50 (μM), 10% FBS, 24 hours of compound treatment. The assay is classed as cell-based.
Assay [3] relates to NCI-H929 human multiple myeloma tumor cell line. Nature of the assay: NCI-H929 cell viability assay (CellTiter-Glo). Format: cell-based. To be noted: NCI-H929, read-out: H929 Viability IC50 (μM), 10% FBS, 24 hours of compound treatment.
Experimental: In one exemplary set of conditions, NCI-H929 or AMO-1 (ATCC. Manassas, Va.) were plated 4.000 cells per well in 384-well tissue culture plates (Corning. Corning, N.Y.) in a total volume of 25 μL RPMI tissue culture medium supplemented with 10% fetal bovine serum (Sigma-Aldrich, St. Louis, Mo.) and treated with a 3-fold serial dilution of the compounds of interest with a Labcyte Echo from a final concentration of 10 μM to 0.0005 μM. Each concentration was tested in duplicate at least 3 independent times. A luminescent signal proportional to the number of viable cells following 24 hours of compound treatment was determined using the CellTiter-Glo® Luminescent Cell Viability Assay according to the manufacturer's recommendations (Promega Corp., Madison, Wis.). The plates were read in a Perkin Elmer Envision using a Luminescence protocol. To generate dose response curves the data is normalized to percent viability by setting the averages of the staurosporine (10 uM) and DMSO only control wells to 0% and (00)% viability respectively. The IC50 values for the compounds are generated by fitting the normalized data with Accelrys Assay Explorer 3.3 to a sigmoidal curve model using linear regression.
Setting [4] is: read-out: MCL-1 Binding Ki (nM, 10% HS), in the presence of 10% HS.
[5] abbreviates: without HS, read-out: MCL-1 Binding Ki.

Read-outs that look alike come from different tables or passages of the source. A value given as a limit tells only on which side of the number the result lay.

Sequence of GST-MCL-1 (Q07820 whole entry): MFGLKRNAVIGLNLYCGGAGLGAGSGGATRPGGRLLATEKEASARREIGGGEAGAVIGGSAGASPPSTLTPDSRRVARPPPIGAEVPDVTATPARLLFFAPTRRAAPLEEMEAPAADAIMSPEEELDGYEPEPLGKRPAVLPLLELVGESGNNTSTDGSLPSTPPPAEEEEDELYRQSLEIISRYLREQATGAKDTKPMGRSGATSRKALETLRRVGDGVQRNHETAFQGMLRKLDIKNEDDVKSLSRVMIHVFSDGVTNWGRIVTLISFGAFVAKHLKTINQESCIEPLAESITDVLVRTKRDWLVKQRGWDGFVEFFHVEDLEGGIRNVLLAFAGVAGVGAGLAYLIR

For orientation: Ki means the equilibrium dissociation constant of an inhibitor or competing ligand from its target. By IC50 is commonly meant the concentration needed to halve the response being measured. In the case of `Cc1c(Cl)c2c(Cl)c(C)c1-c1c(-c3ccc(F)cc3)sc3ncnc(c13)O[C@@H](C(=O)O)Cc1cc(ccc1OCc1ccnc([C@H]3CC[C@@](F)(COC[C@@H]4COCCO4)CC3)n1)OC[C@@H](CN1CCN(C)CC1)O2` [Example 46, (7R,16R)-19,23-dichloro-10-({2-[(1S,4r)-4-({[(2S)-1,4-dioxan-2-yl]methoxy}methyl)-4-fluorocyclohexyl]pyrimidin-4-yl}methoxy)-1-(4-fluorophenyl)-20,22-dimethyl-16-[(4-methylpiperazin-1-yl)methyl]-7,8,15,16-tetrahydro-18,21-etheno-13,9-(metheno)-6,14,17-trioxa-2-thia-3,5-diazacyclononadeca[1,2,3-cd]indene-7-carboxylic acid], the inhibitory constant (Ki) was 0.24 nM in assay [1] (setting [4]) and 0.022 nM in assay [1] (setting [5]). The IC50 in assay [2] stood at 0.000579 µM; in assay [3], 0.000418 µM.
The like results for `Cc1c(Cl)c2c(Cl)c(C)c1-c1c(-c3ccc(F)cc3)sc3ncnc(c13)O[C@@H](C(=O)O)Cc1cc(ccc1OCc1ccnc([C@H]3CC[C@@](F)(COC[C@H]4COCCO4)CC3)n1)OC[C@@H](CN1CCN(C)CC1)O2` [Example 47, (7R,16R)-19,23-dichloro-10-({2-[(1R,4r)-4-({[(2R)-1,4-dioxan-2-yl]methoxy}methyl)-4-fluorocyclohexyl]pyrimidin-4-yl}methoxy)-1-(4-fluorophenyl)-20,22-dimethyl-16-[(4-methylpiperazin-1-yl)methyl]-7,8,15,16-tetrahydro-18,21-etheno-13,9-(metheno)-6,14,17-trioxa-2-thia-3,5-diazacyclononadeca[1,2,3-cd]indene-7-carboxylic acid] were, in that order, 0.521 nM, 0.0133 nM, 0.000463 µM and 0.000344 µM.
As to `Cc1c(Cl)c2c(Cl)c(C)c1-c1c(C3=CCCC3)sc3ncnc(c13)O[C@@H](C(=O)O)Cc1cc(ccc1OCc1ccnc(C3=CC[C@@](F)(COC[C@H]4COCCO4)CC3)n1)OC[C@@H](CN1CCN(C)CC1)O2` [Example 48, (7R,16R)-19,23-dichloro-1-(cyclopent-1-en-1-yl)-10-({2-[(4R)-4-({[(2R)-1,4-dioxan-2-yl]methoxy}methyl)-4-fluorocyclohex-1-en-1-yl]pyrimidin-4-yl}methoxy)-20,22-dimethyl-16-[(4-methylpiperazin-1-yl)methyl]-7,8,15,16-tetrahydro-18,21-etheno-13,9-(metheno)-6,14,17-trioxa-2-thia-3,5-diazacyclononadeca[1,2,3-cd]indene-7-carboxylic acid], the Ki in assay [1] (setting [4]) was determined as 0.648 nM; in assay [1] (setting [5]), 0.026 nM. For the same molecule, the IC50 in assay [2] turned out to be 0.000641 µM; in assay [3] it was 0.000593 µM.
The like results for `Cc1c(Cl)c2c(Cl)c(C)c1-c1c(-c3ccc(F)cc3)sc3ncnc(c13)O[C@@H](C(=O)O)Cc1cc(ccc1OCc1ccnc([C@H]3CC[C@H](COC[C@@H]4COCCO4)CC3)n1)OC[C@@H](CN1CCN(C)CC1)O2` [Example 49, (7R,16R)-19,23-dichloro-10-({2-[(1S,4r)-4-({[(2R)-1,4-dioxan-2-yl]methoxy}methyl)cyclohexyl]pyrimidin-4-yl}methoxy)-1-(4-fluorophenyl)-20,22-dimethyl-16-[(4-methylpiperazin-1-yl)methyl]-7,8,15,16-tetrahydro-18,21-etheno-13,9-(metheno)-6,14,17-trioxa-2-thia-3,5-diazacyclononadeca[1,2,3-cd]indene-7-carboxylic acid] were, in that order, 0.128 nM, less than 0.01 nM, 0.000172 µM and 0.000314 µM.
For `Cc1c(Cl)c2c(Cl)c(C)c1-c1c(-c3ccc(F)cc3)sc3ncnc(c13)O[C@@H](C(=O)O)Cc1cc(ccc1OCc1ccnc([C@H]3CC[C@@H](COC[C@H]4COCCO4)CC3)n1)OC[C@@H](CN1CCN(C)CC1)O2` [Example 50, (7R,16R)-19,23-dichloro-10-({2-[(1S,4s)-4-({[(2S)-1,4-dioxan-2-yl]methoxy}methyl)cyclohexyl]pyrimidin-4-yl}methoxy)-1-(4-fluorophenyl)-20,22-dimethyl-16-[(4-methylpiperazin-1-yl)methyl]-7,8,15,16-tetrahydro-18,21-etheno-13,9-(metheno)-6,14,17-trioxa-2-thia-3,5-diazacyclononadeca[1,2,3-cd]indene-7-carboxylic acid], in that order: 0.249 nM, 0.022 nM, 0.000249 µM and 0.000255 µM.
For `Cc1c(Cl)c2c(Cl)c(C)c1-c1c(-c3ccc(F)cc3)sc3ncnc(c13)O[C@@H](C(=O)O)Cc1cc(ccc1OCc1ccnc([C@H]3CC[C@H](COC[C@H]4COCCO4)CC3)n1)OC[C@@H](CN1CCN(C)CC1)O2` [Example 51, (7R,16R)-19,23-dichloro-10-({2-[(1R,4r)-4-({[(2S)-1,4-dioxan-2-yl]methoxy}methyl)cyclohexyl]pyrimidin-4-yl}methoxy)-1-(4-fluorophenyl)-20,22-dimethyl-16-[(4-methylpiperazin-1-yl)methyl]-7,8,15,16-tetrahydro-18,21-etheno-13,9-(metheno)-6,14,17-trioxa-2-thia-3,5-diazacyclononadeca[1,2,3-cd]indene-7-carboxylic acid], in that order: 0.131 nM, less than 0.01 nM, 0.000267 µM and 0.000299 µM.
For `Cc1c(Cl)c2c(Cl)c(C)c1-c1c(C3CCC3)sc3ncnc(c13)O[C@@H](C(=O)O)Cc1cc(ccc1OCc1ccnc([C@H]3CC[C@H](OC[C@H]4COCCO4)CC3)n1)OC[C@@H](CN1CCN(C)CC1)O2` [Example 52, (7R,16R)-19,23-dichloro-1-cyclobutyl-10-({2-[(1R,4r)-4-{[(2R)-1,4-dioxan-2-yl]methoxy}cyclohexyl]pyrimidin-4-yl}methoxy)-20,22-dimethyl-16-[(4-methylpiperazin-1-yl)methyl]-7,8,15,16-tetrahydro-18,21-etheno-13,9-(metheno)-6,14,17-trioxa-2-thia-3,5-diazacyclononadeca[1,2,3-cd]indene-7-carboxylic acid], the inhibitory constant (Ki) was 0.72 nM in assay [1] (setting [4]) and less than 0.01 nM in assay [1] (setting [5]). Also, the half-maximal inhibitory concentration (IC50) in assay [2] came out at 0.000448 µM; in assay [3] it was 0.00118 µM.
For `COc1ccccc1-c1ccc(OC[C@@H]2COCCO2)c(COc2ccc3cc2C[C@H](C(=O)O)Oc2ncnc4sc(-c5ccc(F)cc5)c(c24)-c2c(C)c(Cl)c(c(Cl)c2C)O[C@H](CN2CCN(C)CC2)CO3)n1` [Example 53, (7R,16R)-19,23-dichloro-10-{[3-{[(2S)-1,4-dioxan-2-yl]methoxy}-6-(2-methoxyphenyl)pyridin-2-yl]methoxy}-1-(4-fluorophenyl)-20,22-dimethyl-16-[(4-methylpiperazin-1-yl)methyl]-7,8,15,16-tetrahydro-18,21-etheno-9,13-(metheno)-6,14,17-trioxa-2-thia-3,5-diazacyclononadeca[1,2,3-cd]indene-7-carboxylic acid], in that order: 114 nM, 13.7 nM, 0.311 µM and greater than 1 µM.
